Marks after values point to notes of the source that are not given here.
Legend:
[1] = tested on: Porcine atria myofibrils (atrial myosin ATPase); assay: Myofibril ATPase assay, porcine atria myofibrils; type: biochemical
Summary of the method: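 Atrial myofibril ATPase measured by NADH-coupled absorbance at 340 nm; vehicle-normalized slopes fitted to give Y75 or Y125 values.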

[2] = target: T1, Porcine ventricle myofibrils (ventricular myosin ATPase) (Sus scrofa, UniProt P79293); assay: Myofibril ATPase assay, porcine ventricle myofibrils; type: biochemical, porcine (Yucatan minipigs)
T1 construct: Myofibrils from porcine cardiac muscle was isolated from the left ventricle of Yucatan minipigs; tissue Exemplar Genetics; host or cells: left ventricle of Yucatan minipigs, myofibrils prepared in house
T1 sequence (P79293 whole entry): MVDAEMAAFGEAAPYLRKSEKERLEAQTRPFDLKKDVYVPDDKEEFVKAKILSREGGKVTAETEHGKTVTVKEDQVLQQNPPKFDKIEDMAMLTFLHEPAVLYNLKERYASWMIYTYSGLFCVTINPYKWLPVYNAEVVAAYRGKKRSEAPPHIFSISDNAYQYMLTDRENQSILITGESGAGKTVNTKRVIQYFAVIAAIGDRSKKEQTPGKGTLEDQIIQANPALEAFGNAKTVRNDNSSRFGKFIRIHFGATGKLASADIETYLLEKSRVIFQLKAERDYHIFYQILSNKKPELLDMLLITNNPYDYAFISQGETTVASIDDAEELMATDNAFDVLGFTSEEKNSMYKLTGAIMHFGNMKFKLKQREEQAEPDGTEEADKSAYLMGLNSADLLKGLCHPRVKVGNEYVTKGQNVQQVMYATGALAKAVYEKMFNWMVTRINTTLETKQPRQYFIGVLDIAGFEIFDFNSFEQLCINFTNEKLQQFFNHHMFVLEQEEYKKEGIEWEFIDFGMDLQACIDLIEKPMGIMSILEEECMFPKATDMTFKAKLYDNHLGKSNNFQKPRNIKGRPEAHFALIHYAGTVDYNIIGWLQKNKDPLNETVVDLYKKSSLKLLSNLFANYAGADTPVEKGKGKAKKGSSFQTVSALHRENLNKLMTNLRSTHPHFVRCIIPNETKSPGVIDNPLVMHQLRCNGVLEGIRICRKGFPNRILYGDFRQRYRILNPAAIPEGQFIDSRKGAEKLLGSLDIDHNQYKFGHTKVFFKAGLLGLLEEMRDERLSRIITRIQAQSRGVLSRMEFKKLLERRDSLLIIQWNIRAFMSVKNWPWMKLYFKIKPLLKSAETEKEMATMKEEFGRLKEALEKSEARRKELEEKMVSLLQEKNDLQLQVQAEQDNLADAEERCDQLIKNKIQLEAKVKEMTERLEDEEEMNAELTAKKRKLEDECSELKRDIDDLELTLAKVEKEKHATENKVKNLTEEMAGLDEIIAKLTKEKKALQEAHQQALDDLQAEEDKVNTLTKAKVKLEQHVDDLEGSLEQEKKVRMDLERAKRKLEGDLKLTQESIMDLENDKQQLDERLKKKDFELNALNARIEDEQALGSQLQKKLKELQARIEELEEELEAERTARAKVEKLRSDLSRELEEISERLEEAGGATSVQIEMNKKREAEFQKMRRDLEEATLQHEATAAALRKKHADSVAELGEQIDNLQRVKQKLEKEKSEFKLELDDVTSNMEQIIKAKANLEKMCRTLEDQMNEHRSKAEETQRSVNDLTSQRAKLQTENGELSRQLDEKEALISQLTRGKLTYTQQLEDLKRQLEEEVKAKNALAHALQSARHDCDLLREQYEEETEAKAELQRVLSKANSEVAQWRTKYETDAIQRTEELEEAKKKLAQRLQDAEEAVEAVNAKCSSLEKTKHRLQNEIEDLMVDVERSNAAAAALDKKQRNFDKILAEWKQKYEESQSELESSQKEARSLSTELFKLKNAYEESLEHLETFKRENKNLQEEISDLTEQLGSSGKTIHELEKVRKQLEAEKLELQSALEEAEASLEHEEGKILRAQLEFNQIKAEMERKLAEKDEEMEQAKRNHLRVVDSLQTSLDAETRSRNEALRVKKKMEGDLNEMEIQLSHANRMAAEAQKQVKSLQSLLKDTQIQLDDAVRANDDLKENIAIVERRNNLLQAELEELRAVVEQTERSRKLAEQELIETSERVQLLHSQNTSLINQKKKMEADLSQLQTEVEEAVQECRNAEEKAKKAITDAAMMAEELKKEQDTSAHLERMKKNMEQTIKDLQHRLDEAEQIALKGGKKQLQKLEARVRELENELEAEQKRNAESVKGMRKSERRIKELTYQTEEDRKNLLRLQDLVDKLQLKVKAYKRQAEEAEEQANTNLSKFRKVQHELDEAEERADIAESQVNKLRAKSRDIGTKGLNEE
Summary of the method: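 Test compounds acted on myofibrils isolated from the left ventricle of Yucatan minipigs. ADP formation was coupled via pyruvate kinase/lactate dehydrogenase to NADH oxidation, monitored kinetically at 340 nm over 75 min. Rates relative to vehicle were fitted with a 4-parameter logistic model, reported as Y75 (25% inhibition) or Y125 (activation) concentrations.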

[3] = tested on: Rabbit Psoas myofibrils (skeletal myosin ATPase); assay: Myofibril ATPase assay, rabbit psoas (skeletal) myofibrils; type: biochemical
Summary of the method: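 Values derive from concentration–response fits of NADH consumption rates at 340 nm, normalized to vehicle-only wells, as Y75 or Y125. Myofibril ATP turnover was linked to NADH via PK/LDH in Ca/EGTA-buffered PIPES, pH 7.0, and read over 75 min.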

[4] = porcine atria myofibrils, Y75 value (75% activity relative to no compound)
[5] = porcine ventricle myofibrils, Y75 value
[6] = rabbit psoas myofibrils, Y75 value
[7] = Y75 value (no ‡ mark), porcine atria myofibrils
[8] = Y75 value (no ‡ mark), porcine ventricle myofibrils
[9] = Y75 value (no ‡ mark), rabbit psoas myofibrils

SMILES | Atrial EC25 [1, 4] | Ventricular EC25 [2, 5] | Skeletal EC25 [3, 6] | Atrial EC25 [1, 7] | Ventricular EC25 [2, 8] | Skeletal EC25 [3, 9] | other results
Cc1ccc([C@@H](C)NC(=O)Cc2c(C)c3c(C)nccc3[nH]c2=O)cc1 (single isomer, unassigned) [compound 301] | 100.00 µM | 100.00 µM | 100.00 µM | – | – | – | –
Cc1c(CC(=O)N[C@@H](CO)c2ccc(C#N)cc2F)c(=O)[nH]c2ccc(F)c(C3CC3)c12 [compound 72] | – | – | – | 0.08 µM | 0.34 µM | 0.02 µM | –
Cc1c(CC(=O)N[C@@H](C)c2ccc(C#N)cn2)c(=O)[nH]c2ccc(F)cc12 [compound 1128] | – | – | – | 0.52 µM | 0.70 µM | 0.09 µM | –
Cc1c(CC(=O)N[C@H](C)c2ncc(C#N)cc2F)c(=O)[nH]c2cccc(C#N)c12 [compound 1080] | – | – | – | 0.21 µM | 0.36 µM | 0.12 µM | –
Cc1c(CC(=O)N[C@H](C)c2ccc(C#N)cc2F)c(=O)[nH]c2ccc(C(F)(F)F)nc12 (single isomer, unassigned) [compound 208] | 2.16 µM | 9.68 µM | 0.15 µM | – | – | – | –
Cc1c(F)ccc2[nH]c(=O)c(C(F)(F)C(=O)N[C@@H](C)c3ncc(C#N)cn3)c(C)c12 (single isomer, unassigned) [compound 4832] | – | – | – | 0.12 µM | 0.58 µM | 0.17 µM | –
Cc1c(CC(=O)N[C@@H](CO)c2ncc(F)cc2F)c(=O)[nH]c2ccnc(C(F)(F)F)c12 [compound 264] | 0.29 µM | 2.73 µM | 0.57 µM | – | – | – | –
C[C@H](NC(=O)Cc1cc2c(F)c(F)ccc2[nH]c1=O)c1cc(C#N)c(F)s1 (single isomer, unassigned) [compound 4003] | – | – | – | – | – | – | Atrial EC25 ([1]; Y75 value: concentration required to reduce myosin ATP-ase activity by 25%, Porcine Atria Prep pCa 25 GEOM_MEAN): 100.00 µM; Ventricular EC25 ([2]; Y75 value: concentration required to reduce myosin ATP-ase activity by 25%, Porcine Ventricle Prep pCa 25 GEOM_MEAN): 100.00 µM; Skeletal EC25 ([3]; Y75 value: concentration required to reduce myosin ATP-ase activity by 25%, Rabbit Psoas Prep pCa 25 GEOM_MEAN): 1.06 µM
C[C@H](NC(=O)C1(c2cc3cc(F)ccc3[nH]c2=O)CC1)c1nccc(C#N)n1 (single isomer, unassigned) [compound 2508] | – | – | – | 100.00 µM | – | 5.03 µM | Ventricular EC25 ([2]; ‡ Y125 value, not a Y75 value (125% activity relative to no compound), porcine ventricle myofibrils): 70.50‡ μM
Cc1c(CC(=O)N[C@@H](C)c2ccc(C#N)cn2)c(=O)[nH]c2ccncc12 [compound 467] | 100.00 µM | 100.00 µM | 16.00 µM | – | – | – | –
C[C@H](NC(=O)C(F)(F)c1cc2c(F)c(F)ccc2[nH]c1=O)c1ncc(C#N)cn1 (single isomer, unassigned) [compound 2546] | – | – | – | 0.20 µM | 1.23 µM | 0.19 µM | –
C[C@@H](NC(=O)C1(c2cc3c(F)c(F)ccc3[nH]c2=O)CC1)c1ccc(F)cc1F [compound 4813] | – | – | – | 0.37 µM | 100.00 µM | 0.91 µM | –
C[C@H](NC(=O)C1(c2cc3c(F)c(F)ccc3[nH]c2=O)CC1)c1ccc(F)cc1F [compound 4814] | – | – | – | 0.23 µM | 1.31 µM | 0.19 µM | –
COC[C@H](NC(=O)Cc1c(C)c2c(C)nccc2[nH]c1=O)c1ccc(C#N)cc1F [compound 169] | 1.06 µM | 10.52 µM | 0.15 µM | – | – | – | –
Cc1c(C(C)C(=O)N[C@@H](C)c2ccc(F)cc2F)c(=O)[nH]c2ccncc12 (stereo partly drawn) [compound 440] | 34.65 µM | 100.00 µM | 2.78 µM | – | – | – | –
Cc1c(C2(C(=O)N[C@@H](C)c3ncc(C#N)cn3)CC2)c(=O)[nH]c2ccc(F)c(C#N)c12 (single isomer, unassigned) [compound 2532] | – | – | – | 0.89 µM | 45.96 µM | 1.49 µM | –
Cc1c(CC(=O)N[C@@H](C)c2ncc(C#N)cc2F)c(=O)[nH]c2ccc(F)c(C#N)c12 [compound 32] | – | – | – | 0.05 µM | 0.04 µM | 0.01 µM | –
C[C@H](NC(=O)[C@@H](C)c1cc2c(C#N)nccc2[nH]c1=O)c1ccc(F)cc1F (single isomer, unassigned) [compound 361] | 1.29 µM | 3.68 µM | 0.03 µM | – | – | – | –
Cc1c([C@H](C)C(=O)N[C@H](C)c2ncc(C#N)cc2F)c(=O)[nH]c2ccc(F)c(F)c12 (single isomer, unassigned) [compound 2601] | – | – | – | 0.04 µM | 0.07 µM | 0.04 µM | –
Cc1c(CC(=O)N[C@@H](C)c2ccc(C#N)cn2)c(=O)[nH]c2cccc(F)c12 [compound 54] | – | – | – | 0.11 µM | 1.53 µM | 0.04 µM | –
Cc1cc([C@@H](C)NC(=O)Cc2c(C)c3cc(F)ccc3[nH]c2=O)ncc1F [compound 1060] | – | – | – | 13.11 µM | 100.00 µM | 100.00 µM | –
CC[C@@H](NC(=O)Cc1c(C)c2c(C)c(F)ccc2[nH]c1=O)c1ncc(C#N)cn1 (single isomer, unassigned) [compound 4833] | – | – | – | 0.52 µM | 1.04 µM | 0.25 µM | –

The next lines start with results.

Atrial EC25 [1, 4] | Ventricular EC25 [2, 5] | Skeletal EC25 [3, 6] | Atrial EC25 [1, 7] | Ventricular EC25 [2, 8] | Skeletal EC25 [3, 9] | SMILES | other results
1.08 µM | 38.06 µM | 0.67 µM | – | – | – | C[C@H](NC(=O)Cc1cc2nc(Cl)ccc2[nH]c1=O)c1ccc(F)cc1F [compound 388] | –
0.08 µM | 2.46 µM | 0.03 µM | – | – | – | Cc1c(CC(=O)N[C@@H](CO)c2ccc(C#N)cc2F)c(=O)[nH]c2ccnc(C(F)(F)F)c12 (single isomer, unassigned) [compound 225] | –
– | – | – | 4.48 µM | 4.80 µM | 0.43 µM | C[C@@H](NC(=O)Cc1cc2c(F)cccc2[nH]c1=O)c1ccc(C#N)cn1 [compound 47] | –
– | – | – | 6.56 µM | 16.01 µM | 5.17 µM | Cc1c(C(F)(F)C(=O)N[C@@H](C)c2ccc(C#N)nn2)c(=O)[nH]c2ccc(F)cc12 (single isomer, unassigned) [compound 2556] | –
1.65 µM | – | 0.71 µM | – | – | – | Cc1nccc2[nH]c(=O)c(C3(C(=O)N[C@@H](C)c4ccc(C#N)cc4F)CC3)c(C)c12 (single isomer, unassigned) [compound 3512] | Ventricular EC25 (Y125 value, marked ‡) ([2]; porcine ventricle myofibrils, Y125 value, not a Y75 value): 100.00‡ μM
– | – | – | 5.29 µM | 11.94 µM | 100.00 µM | Cc1c(CC(=O)N[C@@H](C)c2ncc(C#N)cn2)c(=O)[nH]c2ccc(F)cc12 [compound 1071] | –
– | – | – | 6.01 µM | 12 µM | 52 µM | Cc1c(CC(=O)N[C@H](C)c2ncc(C#N)cn2)c(=O)[nH]c2cc(F)ccc12 [compound 1040] | –
0.76 µM | 5.41 µM | 0.13 µM | – | – | – | Cc1c(C(C)C(=O)N[C@@H](C)c2ccc(F)cc2F)c(=O)[nH]c2ccnc(I)c12 (stereo partly drawn) [compound 349] | –
– | – | – | 100.00 µM | 46.49 µM | 2.56 µM | Cc1cc([C@@H](C)NC(=O)Cc2c(C)c3c(C)c(F)ccc3[nH]c2=O)ncc1F (single isomer, unassigned) [compound 2076] | –
– | – | – | 1.29 µM | 100.00 µM | 1.20 µM | C[C@@H](NC(=O)Cc1c(C2CC2)c2cc(F)ccc2[nH]c1=O)c1ccc(C#N)cn1 [compound 55] | –
1.18 µM | 3.32 µM | 0.55 µM | – | – | – | Cc1nccc2[nH]c(=O)c(CC(=O)N[C@@H](CO)c3ccc(F)cc3F)c(C)c12 (single isomer, unassigned) [compound 396] | –
30.20 µM | 100.00 µM | 7.04 µM | – | – | – | Cc1c(CC(=O)N[C@H](CO)c2ccc(F)cc2F)c(=O)[nH]c2ccc(C#N)nc12 [compound 210] | –
0.13 µM | 0.11 µM | 0.02 µM | – | – | – | Cc1c(CC(=O)N[C@@H](C)c2ccc(C#N)cc2F)c(=O)[nH]c2ccnc(C(F)(F)F)c12 [compound 162] | –
– | – | – | 0.18 µM | 0.77 µM | 0.11 µM | Cc1c(C(F)(F)C(=O)N[C@H](C)c2ncc(C#N)cc2F)c(=O)[nH]c2ccc(F)c(C#N)c12 (single isomer, unassigned) [compound 4835] | –
100.00 µM | 100.00 µM | 100.00 µM | – | – | – | Cc1nccc2[nH]c(=O)c(CC(=O)N[C@H](c3ccc(F)cc3F)C(C)(C)O)c(C)c12 (single isomer, unassigned) [compound 272] | –
